US10766909B2, “Process for preparing halogenated pyridine derivatives” (Bayer CropScience Aktiengesellschaft, priority 2016, dated 2020)

Assay: log P by HPLC-MS
Format: physicochemical

| Compound | chromatographic logP |
| --- | --- |
| Fc1ccc(Cl)nc1I [Example 1, 6-chloro-3-fluoro-2-iodopyridine] | 2.53 |
| COC(=O)c1ccc(F)c(I)n1 [Example 2, methyl 5-fluoro-6-iodopyridine-2-carboxylate] | 1.85 |
| Fc1ccc(Br)nc1I [Example 3, 6-bromo-3-fluoro-2-iodopyridine] | 2.67 |
